{
  "source": "patent US20130317037A1",
  "about": "“METHOD OF ADMINISTRATION AND TREATMENT” (GlaxoSmithKline Intellectual Property Development Limited, priority 2010, published 2013)",
  "format_in_all_cases": "cell-based, human",
  "settings_in_all_cases": "for IC50: Homo sapiens",
  "key": {"[1]": {"test_system": "MDA-MB-175-VII", "test": "Panel A proliferation assay (CellTiter-Glo); HER2 2 copies, KRAS WT, PIK3CA WT", "procedure": "(§1) A total of 15 breast cancer cell lines were used in this study. These cells were cultured in RPMI-1640 and supplemented with 5% or 10% fetal bovine serum, 2 mM GlutaMAX™ and 1 mM sodium pyruvate, or in growth medium recommended by the suppliers [American Type Culture Collection, Manassas, Va., USA; Developmental Therapeutics Program, National Cancer Institute, Bethesda, Md., USA; German Collection of Microorganisms and Cell Cultures (DSMZ), Braunschweig, Germany; European Collection of Cell Cultures (ECACC), Porton Down, UK]. Cells of each line were seeded into a 384-well microtiter plate at two cell densities. Low density ranges were 300-1800 cells/well, and a high density was 600 to 3600 cells/well). The plating density was determined by the rate of proliferation of the cell line in the absence of any inhibitor and varied amongst cell lines. High plating densities were double that of low density. Each cell density was plated in triplicate. In total there were 30 wells to be treated with increasing concentrations of Compound B for each cell line at each density. In addition, there were 24 wells of dimethyl sulfoxide (DMSO)-treated controls at each density. After seeding, the cells were incubated at 37° C. in 5% CO2 for 24 hours. Subsequently, Compound B was added to each cell line with 10 concentrations. The dosing solution of Compound B was first prepared in DMSO at a master stock concentration of 10 mM. […] were then made of the stock solution to give a range of working stock concentrations; 10.00 mM, 3.164 mM, 1.001 mM, 316.9 μM, 100.3 μM, 31.74 μM, 10.04 μM, 3.178 μM, 1.006 μM and 318.3 nM. The working stock concentrations of Compound B were then dispensed into the seeded cancer cell lines using a Biomek FX liquid handler to give final treatment concentrations of 0.1% of the stock concentration. A similar volume of DMSO without Compound B was dispensed into the 24 control wells of each seeding density at a concentration of 0.1%. Also, a zero-time plate prepared with a similar cell seeding was read for each cell line at each seeding density immediately after the addition of the DMSO control. After a 72 h incubation, an equal volume of the CellTiter-Glo (CellTiter-Glo Luminescent Cell Viability Assay, Promega, Madison, Wis.) to that of the cell culture medium was added into each well of the plate. After the contents were mixed to induce cell lysis and stabilization, cell luminescence was recorded using a SpectraMax M5^e (Molecular Devices, Sunnyvale, Calif., USA)\n(§2) The luminescence of Compound B treated cells was compared relative to the average of the 24 DMSO-treated control wells at each cell density for every concentration of Compound B for all triplicate wells. The percent intensity values were used in model 205 of XLfit in Microsoft Excel to calculate gIC50s for the low and high seeding density (a 4 parameter logistical fit). Specifically, the midpoint of the growth window (the gIC50) falls half way between the number of cells at the time of compound addition (T=0) and the growth of control cells treated with DMSO. The gIC50 value serves as a metric for measuring the inhibition of proliferation in cancer cells. The curves for each seeding density for each cell line were manually inspected for both data quality and appropriateness of curve fitting. Where the starting data were poor the curve and subsequent gIC50s were excluded from further analysis. Cell line seedings were considered of poor quality when the r^2 value of the fitted curve was <0.75. Finally, where data quality permits, the Ymin values (defined as the maximum growth inhibition relative to the cell density at Time-zero) were calculated as a measure of cytotoxicity where data were of reasonable quality."}, "[2]": {"test_system": "ZR-75-1", "test": "Panel A proliferation assay (CellTiter-Glo); HER2 2 copies, KRAS WT, PIK3CA WT", "procedure": "as §1, §2"}, "[3]": {"test_system": "KPL-1", "test": "Panel A proliferation assay (CellTiter-Glo); HER2 2 copies, KRAS WT, PIK3CA p.E545K", "procedure": "(§3) A total of 15 breast cancer cell lines were used in this study. […] Cells of each line were seeded into a 384-well microtiter plate at two cell densities. Low density ranges were 300-1800 cells/well, and a high density was 600 to 3600 cells/well). The plating density was determined by the rate of proliferation of the cell line in the absence of any inhibitor and varied amongst cell lines. High plating densities were double that of low density. Each cell density was plated in triplicate. […] In addition, there were 24 wells of dimethyl sulfoxide (DMSO)-treated controls at each density. After seeding, the cells were incubated at 37° C. in 5% CO2 for 24 hours. […] After a 72 h incubation, an equal volume of the CellTiter-Glo (CellTiter-Glo Luminescent Cell Viability Assay, Promega, Madison, Wis.) to that of the cell culture medium was added into each well of the plate. After the contents were mixed to induce cell lysis and stabilization, cell luminescence was recorded using a SpectraMax M5^e (Molecular Devices, Sunnyvale, Calif., USA)\nas §2, with “Specifically,” for “The luminescence of Compound B treated cells was compared relative to the average of the 24 DMSO-treated control wells at each cell density for every concentration of Compound B for all triplicate wells. The percent intensity values were used in model 205 of XLfit in Microsoft Excel to calculate gIC50s for the low and high seeding density (a 4 parameter logistical fit). Specifically,”"}, "[4]": {"test_system": "MDA-MB-231", "test": "Panel A proliferation assay (CellTiter-Glo); HER2 2 copies, KRAS p.G13D, PIK3CA WT", "procedure": "as §3\nas §2, with “Specifically,” for “The luminescence of Compound B treated cells was compared relative to the average of the 24 DMSO-treated control wells at each cell density for every concentration of Compound B for all triplicate wells. The percent intensity values were used in model 205 of XLfit in Microsoft Excel to calculate gIC50s for the low and high seeding density (a 4 parameter logistical fit). Specifically,”"}},
  "note": "Like-named read-outs stand apart in the source and are kept apart here.",
  "data": [
    {"smiles": "COc1ncc(-c2ccc3nccc(-c4ccnnc4)c3c2)cc1NS(=O)(=O)c1ccc(F)cc1F", "note": "[Compound B, 2,4-difluoro-N-{2-(methyloxy)-5-[4-(4-pyridazinyl)-6-quinolinyl]-3-pyridinyl}benzenesulfonamide]", "values": [
      {"measurement": "IC50", "setting": "[1]; high seeding density, 72 h, read-out: High Density gIC50", "value": 1.1, "unit": "nM"},
      {"measurement": "IC50", "setting": "[1]; low seeding density, 72 h, read-out: Low Density gIC50", "value": 1.7, "unit": "nM"},
      {"measurement": "IC50", "setting": "[1]; mean of low and high density, read-out: Mean gIC50", "value": 1.4, "unit": "nM"},
      {"measurement": "High Density Y-Min", "setting": "[1]; high density, % of cells at T = 0", "value": 12.2, "unit": "%"},
      {"measurement": "Low Density Y-Min", "setting": "[1]; low density, % of cells at T = 0", "value": 19.8, "unit": "%"},
      {"measurement": "IC50", "setting": "[2]; ZR-75-1, high seeding density, 72 h, read-out: High Density gIC50", "value": 0.9, "unit": "nM"},
      {"measurement": "IC50", "setting": "[2]; ZR-75-1, low seeding density, 72 h, read-out: Low Density gIC50", "value": 0.8, "unit": "nM"},
      {"measurement": "IC50", "setting": "[2]; ZR-75-1, mean of low and high density, read-out: Mean gIC50", "value": 0.85, "unit": "nM"},
      {"measurement": "High Density Y-Min", "setting": "[2]; ZR-75-1, high density, % of cells at T = 0", "value": 22.1, "unit": "%"},
      {"measurement": "Low Density Y-Min", "setting": "[2]; ZR-75-1, low density, % of cells at T = 0", "value": 19.8, "unit": "%"},
      {"measurement": "IC50", "setting": "[3]; KPL-1, high seeding density, 72 h, read-out: High Density gIC50", "value": 2.7, "unit": "nM"},
      {"measurement": "IC50", "setting": "[3]; KPL-1, low seeding density, 72 h, read-out: Low Density gIC50", "value": 2, "unit": "nM"},
      {"measurement": "IC50", "setting": "[3]; KPL-1, mean of low and high density, read-out: Mean gIC50", "value": 2.35, "unit": "nM"},
      {"measurement": "High Density Y-Min", "setting": "[3]; KPL-1, high density, % of cells at T = 0", "value": 130.2, "unit": "%"},
      {"measurement": "Low Density Y-Min", "setting": "[3]; KPL-1, low density, % of cells at T = 0", "value": 126.6, "unit": "%"},
      {"measurement": "IC50", "setting": "[4]; MDA-MB-231, high seeding density, 72 h, read-out: High Density gIC50", "value": 357, "unit": "nM"},
      {"measurement": "IC50", "setting": "[4]; MDA-MB-231, low seeding density, 72 h, read-out: Low Density gIC50", "value": 97.1, "unit": "nM"},
      {"measurement": "IC50", "setting": "[4]; MDA-MB-231, mean of low and high density, read-out: Mean gIC50", "value": 227, "unit": "nM"},
      {"measurement": "High Density Y-Min", "setting": "[4]; MDA-MB-231, high density, % of cells at T = 0", "value": 357.2, "unit": "%"},
      {"measurement": "Low Density Y-Min", "setting": "[4]; MDA-MB-231, low density, % of cells at T = 0", "value": 189.1, "unit": "%"}
    ]}
  ]
}
